Earlier results on two compounds are cited in patent US20130204238A1, “COMBINATION THERAPY” (FOLLICA, INC, priority 2010, published 2013).

The target in the series is GSK3β (Homo sapiens, UniProt P49841). To be noted: compared with other indirubin derivatives.
Chain of GSK3β (P49841 whole entry, species assumed): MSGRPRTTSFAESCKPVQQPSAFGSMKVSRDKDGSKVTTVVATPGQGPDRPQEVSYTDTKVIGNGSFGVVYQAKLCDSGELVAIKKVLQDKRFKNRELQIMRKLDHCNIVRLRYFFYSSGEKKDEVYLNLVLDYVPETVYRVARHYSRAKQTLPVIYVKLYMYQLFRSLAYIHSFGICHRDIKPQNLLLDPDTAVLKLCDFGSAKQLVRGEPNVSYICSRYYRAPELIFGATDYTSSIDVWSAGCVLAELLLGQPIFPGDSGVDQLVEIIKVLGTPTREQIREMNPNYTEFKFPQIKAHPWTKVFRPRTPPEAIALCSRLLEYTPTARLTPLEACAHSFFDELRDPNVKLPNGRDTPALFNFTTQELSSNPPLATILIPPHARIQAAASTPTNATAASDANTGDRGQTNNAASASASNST

Regarding `O=C1Nc2ccc(Cl)cc2/C1=C1/Nc2ccccc2C1=O` [5-chloroindirubin], the pharmacological properties entry is “better pharmacological properties” and the toxicity entry is reported as “reduced toxicity”.

For the compound indirubin 3′-monoxime, the pharmacological properties result is listed as “better pharmacological properties”.
